Where two headings read alike, the source gives them in different places.
How the values were obtained:
PEO4 = details: read-out: cytotoxicity IC50 PEO4; Tables 3A/4B/4C; MTT assay
PEA2 = details: read-out: cytotoxicity IC50 PEA2; Tables 3A/4B/4C; MTT assay
SiHa [1] = experiment: MTT cytotoxicity assay, SiHa; details: read-out: cytotoxicity IC50 SiHa; Tables 3A/4B/4C; MTT assay
UWB1.289 + BRCA1 = experiment: MTT cytotoxicity assay, UWB1.289 + BRCA1; type: cell-based; details: Tables 3A/4B/4C, BRCA1 + Ve
CaSki [2] = experiment: MTT cytotoxicity assay, CaSki; details: read-out: cytotoxicity IC50 CasKi; Tables 3A/4B/4C; MTT assay
TOV21G = experiment: MTT cytotoxicity assay, TOV21G; details: read-out: cytotoxicity IC50 TOV21G; Tables 3A/4B/4C; MTT assay
TC1-Lu = experiment: MTT cytotoxicity assay, TC1-Lu; details: read-out: cytotoxicity IC50 TC1-Lu; Tables 3A/4B/4C; MTT assay
HEC-1A = experiment: MTT cytotoxicity assay, HEC-1A; details: read-out: cytotoxicity IC50 HEC-1A, Tables 3A/4B/4C
KLE = experiment: MTT cytotoxicity assay, KLE; details: read-out: cytotoxicity IC50 KLE, Tables 3A/4B/4C
HeLa [3] = experiment: MTT cytotoxicity assay, HeLa; details: read-out: cytotoxicity IC50 HeLa, Tables 3A/4B/4C
HeLa [4] = system: HeLa
multiple myeloma = details: cited from earlier work
SiHa [5] = system: SiHa
CaSki [6] = system: CaSki

## N.N.[Cl][Pt][Cl] [CP, Cisplatin]
PEO4
  IC50: 19500 nM
PEA2
  IC50: 9850 nM

## C[C@@H]1/C(=C\c2ccc([N+](=O)[O-])cc2)C(=O)/C(=C/c2ccc([N+](=O)[O-])cc2)CN1C(=O)[C@@H](N)Cc1ccccc1 [RA413R]
SiHa [1]
  IC50: 139 nM
UWB1.289 + BRCA1
  IC50: < 20 nM
CaSki [2]
  IC50: 220 nM
TOV21G
  IC50: 20 nM
TC1-Lu
  IC50: 1800 nM
HEC-1A
  IC50: 268 nM
SKOV3
  IC50: 161 nM
KLE
  IC50: 1430 nM
HeLa [3]
  IC50: 172 nM

## C=CC(=O)N1CC/C(=C\c2ccc(F)c([N+](=O)[O-])c2)C(=O)/C(=C/c2ccc(F)c([N+](=O)[O-])c2)C1 [VLX1570]
DLD-BRCA2-Ve
  IC50: 8540 nM
OVCAR3
  IC50: 18 nM
HeLa [4]
  IC50: 111 nM
DLD-Seckle
  IC50: 964 nM
Multiple myeloma; phase I patients (70)
  dose at which anti-myeloma effects were observed: ≥ 0.6 mg/kg
Multiple myeloma; two patients at the 1.2 mg/kg dose level (70)
  adverse events: severe, abrupt, and progressive respiratory insufficiency, culminating in death
SiHa [5]
  IC50: 54 nM
BR5-Luc
  IC50: 4.8 nM
BR5-FvB1
  IC50: 250 nM
SKOV3-TR
  IC50: 300 nM
RPE1-ATMKO
  IC50: 963 nM
CaSki [6]
  IC50: 68 nM
SKOV3
  IC50: 128 nM
